# Patent US11478441B2, “Treatment of disease with n-acetyl kynurenine” (AMPIO PHARMACEUTICALS, INC., priority 2016, dated 2022)
# Assay: Colorimetric (Ehrlich's reagent) detection of kynurenine-like molecules; thermal forced degradation / storage
# Assay type: physicochemical
# Excerpt: The quantitation of kynurenine-like species in […] was detected using a modified method by Meyer et al. (“Suitability of recombinant Escherichia coli and Pseudomonas putida strains for selective biotransformation of m-nitrotoluene by xylene monooxygenase”, Appl Environ Microbiol 71 (2005) 6624-6632). The method is based on the reaction of p-dimethylamino-benzaldehyde (DMAB or Ehrlich's reagent) with primary aromatic amines to form yellow imines in acidic conditions. Briefly, […], […] or kynurenine standard (0-800 μM in 0.9% saline) was combined in triplicate with 100 μL Ehrlich's reagent in a 96-well plate. The plate was read at 492 nm using a SpectraMax M2 plate reader (Molecular Devices, Sunnyvale, Calif., USA). […] […] was incubated at ambient temperature or 80° C. for 6 days. Aliquots were collected at 0, 1, 2, 3, or 6 days and analyzed in triplicate for kynurenine-like molecules using the colorimetric assay described in Section 2.3. Also, 4 mM N-acetyl tryptophan in 0.9% saline was incubated at 80° C. for 6 days.
smiles,measurement,setting,value
"CC(=O)N[C@@H](Cc1c[nH]c2ccccc12)C(=O)O [NAT, N-acetyl tryptophan]",concentration of kynurenine-like molecules,4 mM in 0.9% saline heated at 80° C. for 6 days,11.6 µM
same,levels of kynurenine-like molecules,"4 mM in 0.9% saline, t=0",undetectable
